{"source": "paper PMC12022903", "about": "“Evaluation of drug-drug interaction between Suraxavir Marboxil (GP681) and itraconazole, and assessment of the impact of gene polymorphism” (Frontiers in Pharmacology, 2025)", "assay": "Pharmacokinetic parameters of GP1707D07 (HPLC-MS/MS, non-compartmental) in the GP681-itraconazole drug-drug interaction study", "type": "in vivo, healthy Chinese subjects", "settings": "for Cmax / MRT0-t / MRT0-∞ / Tmax / Vz/F / t1/2 / λz / AUC0-t / AUC0-∞ / AUC_%Extrap / CL/F: Period 2, GP681 20 mg + itraconazole", "experimental": "This single-center, open-label, self-controlled, fixed-sequence study, sponsored by Qingfeng Pharmaceutical Group Co., Ltd., was conducted at a single clinical research site in the China–Japan Friendship Hospital (Beijing, China). Each subject received the following treatment: Suraxavir Marboxil (GP681) 20 mg in the fasted state on day 1 and day 26. Itraconazole capsules (Sporanox®: Xi’an Yangsen Pharmaceutical Co., Ltd., China) 0.2 g twice daily (BID, bis in die) on day 22. Itraconazole 0.2 g daily from day 23 to day 36 [including day 26, when itraconazole was co-administrated with Suraxavir Marboxil (GP681)]. The washout period is 21 days (Figure 2). It should be noted that in the following sections, when discussing the PK profile, this study was divided into Period 1 (Suraxavir Marboxil (GP681) monotherapy, from day −1 to day 12), and Period 2 (Suraxavir Marboxil (GP681)-itraconazole co-administration, from day 21 to day 36). When discussion the safety profile, this study was divided into Stage 1 (Suraxavir Marboxil (GP681) monotherapy stage, from day 1 to day 21), Stage 2 (itraconazole monotherapy stage, from day 22 to day 25), and Stage 3 (Suraxavir Marboxil (GP681)-itraconazole co-administration stage, from d 26 to d 36).\nBlood samples were collected at the following time points: pre–dose, 0.5, 1, 2, 3, 4, 5, 6, 8, 12, 24, 36, 48, 72, 120, 168, and 264 h post-dose on day 1 and day 26. In addition, a blood sample were collected before dosing on day 1 for genetic polymorphism assessment.\nA validated high-performance liquid chromatography-tandem mass spectrometry (HPLC-MS/MS) method was used to determine plasma concentrations of Suraxavir Marboxil (GP681) and its active metabolite GP1707D07 at different times, with the quantification range of 0.3/0.3–300/300 ng/mL for Suraxavir Marboxil (GP681) and GP1707D07. The lower limit of quantification (LLOQ) for both compounds was 0.300 ng/mL. Phoenix® WinNonlin® 8.3 was used to estimate and analyze the pharmacokinetic parameters of non-compartmental model from plasma concentration data. Pharmacokinetic parameters included: maximum plasma concentration (Cmax), area under the plasma concentration-time curve extrapolated from time zero to infinity (AUC0- ∞ ), time to Cmax (Tmax), half-life (t1/2), λz, AUC_%Extrap, Vz/F, CL/F, and mean residence time (MRT).\nStatistical analysis was performed using SAS (version 9.4 or above) software programming. Pharmacokinetic concentration analysis was based on Pharmacokinetic Analysis Concentration Set (PKCS). Individual and mean concentrations (mean ± SD) were plotted against planned blood sampling time points for the analyte on linear and semi-log scales. Pharmacokinetic parameter analysis was based on Pharmacokinetic Analysis Parameter Set (PKPS). Drug interaction analysis was based on Drug Interaction Set (DIS). The geometric mean ratios and their 90% confidence intervals of pharmacokinetic parameters Cmax, AUC0-t, and AUC0- ∞ under Suraxavir Marboxil (GP681) single dose and Suraxavir Marboxil (GP681)-itraconazole co-administration conditions were calculated after natural logarithm transformation, using a linear mixed effects model with subjects as random effects and treatment (combined/single) as fixed effects.\n1.3 Pharmacokinetic Sample Collection and Processing: Pharmacokinetic Analysis: Approximately 4 mL of blood is collected each time into a tube containing sodium fluoride/potassium oxalate as an anticoagulant. The tube is then placed upright in an ice-water bath. The plasma samples are separated by centrifugation for the detection of GP681/GP1707D07 blood drug concentrations. Both sample collection and processing are conducted under white light conditions. […]", "key": {"[1]": {"settings": "mean (SD), N = 4 (8 subjects with %AUCextrap >20% not included)"}}, "note": "Values joined by “and” are separate entries in the source; they are usually repeats but may differ in a detail not shown here. Equal values may be shown once.", "data": [{"smiles": "O=C1c2c(O)c(=O)ccn2N([C@@H]2c3ccccc3SCc3c2ccc(F)c3F)[C@@H]2COC3(CC3)CN12", "note": "[GP1707D07]", "values": [{"measurement": "Cmax", "setting": "geometric mean, N=12", "result": "22.0 ng/mL and 22.0359 ng/mL"}, {"measurement": "MRT0-t", "setting": "geometric mean, N=12", "result": 91.828, "unit": "h"}, {"measurement": "MRT0-∞", "setting": "geometric mean, N=12", "result": "170.5 h and 170.494 h"}, {"measurement": "Tmax", "setting": "geometric mean, N=12", "result": 4.4, "unit": "h"}, {"measurement": "Vz/F", "setting": "geometric mean, N=12", "result": 1365.672, "unit": "L"}, {"measurement": "t1/2", "setting": "geometric mean, N=12", "result": 125.561, "unit": "h"}, {"measurement": "λz", "setting": "geometric mean, N=12", "result": 0.0055, "unit": "h⁻¹"}, {"measurement": "AUC0-t", "setting": "individual subjects", "result": "2991.14 ng·h/mL and 2032.39 ng·h/mL and 1353.85 ng·h/mL and 2127.20 ng·h/mL and 1044.79 ng·h/mL and 2764.96 ng·h/mL and 1661.62 ng·h/mL and 2484.54 ng·h/mL and 2488.27 ng·h/mL and 2757.79 ng·h/mL and 1586.83 ng·h/mL and 2524.54 ng·h/mL and 2991.1 ng·h/mL and 2032.4 ng·h/mL and 1353.9 ng·h/mL and 1044.8 ng·h/mL and 2765.0 ng·h/mL and 1661.6 ng·h/mL and 2484.5 ng·h/mL and 2488.3 ng·h/mL and 2757.8 ng·h/mL and 1586.8 ng·h/mL and 2524.5 ng·h/mL"}, {"measurement": "AUC0-∞", "setting": "individual subjects", "result": "4071.31 ng·h/mL and 2952.73 ng·h/mL and 1815.81 ng·h/mL and 2809.94 ng·h/mL and 1322.58 ng·h/mL and 3386.84 ng·h/mL and 1943.92 ng·h/mL and 3038.12 ng·h/mL and 3010.01 ng·h/mL and 3496.61 ng·h/mL and 2164.09 ng·h/mL and 3287.23 ng·h/mL"}, {"measurement": "AUC_%Extrap", "setting": "individual subjects", "result": "26.53% and 31.17% and 25.44% and 24.30% and 21.00% and 18.36% and 14.52% and 18.22% and 17.33% and 21.13% and 26.67% and 23.20%"}, {"measurement": "CL/F", "setting": "individual subjects", "result": "4.91 L/h and 6.77 L/h and 11.01 L/h and 7.12 L/h and 15.12 L/h and 5.91 L/h and 10.29 L/h and 6.58 L/h and 6.64 L/h and 5.72 L/h and 9.24 L/h and 6.08 L/h"}, {"measurement": "Cmax", "setting": "individual subjects", "result": "30.409 ng/mL and 21.586 ng/mL and 13.021 ng/mL and 20.877 ng/mL and 9.944 ng/mL and 32.652 ng/mL and 20.426 ng/mL and 33.588 ng/mL and 31.705 ng/mL and 26.988 ng/mL and 14.549 ng/mL and 26.492 ng/mL and 30.4 ng/mL and 21.6 ng/mL and 13.0 ng/mL and 20.9 ng/mL and 9.9 ng/mL and 32.7 ng/mL and 20.4 ng/mL and 33.6 ng/mL and 31.7 ng/mL and 27.0 ng/mL and 14.5 ng/mL and 26.5 ng/mL"}, {"measurement": "MRT0-t", "setting": "individual subjects", "result": "95.36 h and 94.95 h and 95.71 h and 95.46 h and 92.09 h and 90.98 h and 84.46 h and 87.34 h and 83.83 h and 94.91 h and 93.53 h and 94.49 h"}, {"measurement": "MRT0-∞", "setting": "individual subjects", "result": "196.38 h and 225.05 h and 182.53 h and 178.20 h and 165.60 h and 151.62 h and 129.66 h and 149.99 h and 143.87 h and 168.40 h and 198.32 h and 178.88 h"}, {"measurement": "Tmax", "setting": "individual subjects", "result": "6 h and 4 h and 5 h and 3 h"}, {"measurement": "Vz/F", "setting": "individual subjects", "result": "1042.08 L and 1684.38 L and 1909.99 L and 1224.96 L and 2694.46 L and 929.93 L and 1355.33 L and 1100.32 L and 1104.05 L and 1021.99 L and 2056.61 L and 1181.94 L"}, {"measurement": "t1/2", "setting": "individual subjects", "result": "147.04 h and 172.37 h and 120.20 h and 119.29 h and 123.51 h and 109.15 h and 91.31 h and 115.86 h and 115.17 h and 123.85 h and 154.25 h and 134.65 h"}, {"measurement": "λz", "setting": "individual subjects", "result": "0.005 h⁻¹ and 0.004 h⁻¹ and 0.006 h⁻¹ and 0.008 h⁻¹"}, {"measurement": "AUC0-∞", "setting": "[1]", "result": "2,844.7 (624.5) (N = 4) h*ng/mL"}, {"measurement": "CL/F", "setting": "[1]", "result": "7.4 (2.0) (N = 4) L/h"}, {"measurement": "Vz/F", "setting": "[1]", "result": "1,122.4 (175.2) (N = 4) L"}, {"measurement": "t1/2", "setting": "[1]", "result": "107.9 (11.4) (N = 4) h"}, {"measurement": "λz", "setting": "[1]", "result": "0.007 (0.0008) (N = 4) h-1"}, {"measurement": "AUC_%Extrap", "setting": "mean, all 12 subjects", "result": "22.3 (4.8) % and 22.324%"}, {"measurement": "CL/F", "setting": "mean, all 12 subjects", "result": "8.0 (2.9) L/h and 7.951 L/h"}, {"measurement": "Cmax", "setting": "mean, all 12 subjects", "result": "23.5 (8.1) ng/mL and 23.5198 ng/mL"}, {"measurement": "MRT0-t", "setting": "mean, all 12 subjects", "result": "91.9 (4.4) h and 91.926 h"}, {"measurement": "MRT0-∞", "setting": "mean, all 12 subjects", "result": "172.4 (26.7) h and 172.374 h"}, {"measurement": "Tmax", "setting": "mean, all 12 subjects", "result": 4.5, "unit": "h"}, {"measurement": "t1/2", "setting": "mean, all 12 subjects", "result": "127.2 (21.8) h and 127.221 h"}, {"measurement": "λz", "setting": "mean, all 12 subjects", "result": "0.006 (0.0009) h-1 and 0.0056 h-1"}, {"measurement": "Tmax", "setting": "median (range), N=12", "result": "4.5 (3.0–6.0) h"}, {"measurement": "AUC0-t", "setting": "median, N=12", "result": 2305.872, "unit": "ng·h/mL"}, {"measurement": "AUC0-∞", "setting": "median, N=12", "result": 2981.370, "unit": "ng·h/mL"}, {"measurement": "AUC_%Extrap", "setting": "median, N=12", "result": 22.166, "unit": "%"}, {"measurement": "CL/F", "setting": "median, N=12", "result": 6.709, "unit": "L/h"}, {"measurement": "Cmax", "setting": "median, N=12", "result": 24.0390, "unit": "ng/mL"}, {"measurement": "MRT0-t", "setting": "median, N=12", "result": 94.010, "unit": "h"}, {"measurement": "MRT0-∞", "setting": "median, N=12", "result": 173.300, "unit": "h"}, {"measurement": "Vz/F", "setting": "median, N=12", "result": 1203.452, "unit": "L"}, {"measurement": "t1/2", "setting": "median, N=12", "result": 121.852, "unit": "h"}, {"measurement": "λz", "setting": "median, N=12", "result": 0.0057, "unit": "h⁻¹"}, {"measurement": "half-life", "setting": "Period 2, GP681 + itraconazole, statistic not stated (discussion)", "result": 107.4, "unit": "h"}, {"measurement": "increase of AUC0-t in Period 2 compared to Period 1", "setting": "arithmetic means", "result": 107, "unit": "%"}, {"measurement": "increase of AUC0-∞ in Period 2 compared to Period 1", "setting": "arithmetic means", "result": 153, "unit": "%"}, {"measurement": "increase of Cmax in Period 2 compared to Period 1", "setting": "arithmetic means", "result": 22, "unit": "%"}, {"measurement": "AUC0-t Ratio Period 2/Period 1", "setting": "individual subjects", "result": "7.8 and 2.8 and 1.7 and 2.2 and 1.8 and 1.4 and 1.9 and 2.0 and 2.1"}, {"measurement": "Cmax Ratio Period 2/Period 1", "setting": "individual subjects", "result": "8.0 and 1.7 and 0.8 and 1.8 and 1.3 and 1.6 and 1.1 and 0.6"}]}]}
